Source: patent publication US7015351B2, “Reaction systems for making N-(phosphonomethyl) glycine compounds” (Monsanto Technology LLC, priority 2000, dated 2006)

Experiments:
[1] = Solubility of N-(phosphonomethyl)glycine product in water / aqueous reaction mixture; format: physicochemical; settings: oxidation operating temperatures from about 95 to about 105° C.
[2] = cited from earlier work

SMILES	concentration at which the product remains soluble [1] [% by weight]	solubility relative to the free acid ([2]; at 25° C.)	maximum N-(phosphonomethyl)glycine solubility ([2]; aqueous reaction mixture, temperatures of from about 60° C. to 90° C.)
CC(C)N.O=C(O)CNCP(=O)(O)O [isopropylamine salt of N-(phosphonomethyl)glycine]	≥ 50	roughly 40 times	
O=C(O)CNCP(=O)(O)O [N-(phosphonomethyl)glycine]			less than 6.5%
